Literature values, collected in PMC7904743, “WIDOCK: a reactive docking protocol for virtual screening of covalent inhibitors” (Journal of Computer-Aided Molecular Design, 2021).
Read-outs that look alike come from different tables or passages of the source.

How the values were obtained:
[1] = thiol reactivity, cited from earlier work
[2] = tested on: NUDT7; conditions: protein labeling at 200 μM; experimental actives if % labeling higher than 50%; cited from earlier work
[3] = tested on: OTUB2; conditions: experimental actives if % labeling higher than 50%; cited from earlier work
[4] = natural log of average rate constant k
[5] = natural logarithm of average rate constant

SMILES	ln(avg k) [1, 4]	ln(avg k) [1, 5]	NUDT7 % labeling [2] [%]	OTUB2 % labeling [3] [%]
N#Cc1oc2ccccc2c1NC(=O)CCl [PCM-0102252, N#Cc1oc2ccccc2c1NC(=O)CCl]	-15.605	-15.605	37	86
COc1ccc(N2CCN(C(=O)CCl)CC2)cc1 [PCM-0102254, COc1ccc(N2CCN(C(=O)CCl)CC2)cc1]	-15.625	-15.625	0	0
CCOC(=O)N1CCC(NC(=O)CCl)CC1 [PCM-0102255, CCOC(=O)N1CCC(NC(=O)CCl)CC1]	-15.985	-15.985	0	24
CC(NC(=O)CCl)c1ccccc1Br (stereo not shown) [PCM-0102256, CC(NC(=O)CCl)c1ccccc1Br]	-16.021	-16.021	19	29
O=C(CCl)N1CCN(C(=O)Nc2ccccc2)CC1 [PCM-0102257, O=C(CCl)N1CCN(C(=O)Nc2ccccc2)CC1]	-15.051	-15.051	7	0
O=C(CCl)Nc1cc(Cl)ccc1-n1cncn1 [PCM-0102258, O=C(CCl)Nc1cc(Cl)ccc1-n1cncn1]	-15.839	-15.839	21	0
CN(CC(=O)NC(C)(C)C)C(=O)CCl [PCM-0102259, CN(CC(=O)NC(C)(C)C)C(=O)CCl]	-16.044	-16.044	0	0
Cc1c(C#N)c(NC(=O)CCl)n(-c2ccccc2)c1C [PCM-0102261, Cc1c(C#N)c(NC(=O)CCl)n(-c2ccccc2)c1C]	-16.038	-16.038	30	9
Cc1nc(-c2cccc(NC(=O)CCl)c2)cs1 [PCM-0102262, Cc1nc(-c2cccc(NC(=O)CCl)c2)cs1]	-15.670	-15.670	0	63
CC(C)C(C#N)N1CCN(C(=O)CCl)CC1 (stereo not shown) [PCM-0102263, CC(C)C(C#N)N1CCN(C(=O)CCl)CC1]	-14.716	-14.716	17	31
Cc1csc(N(C(=O)CCl)c2ccccc2)n1 [PCM-0102265, Cc1csc(N(C(=O)CCl)c2ccccc2)n1]	-15.232	-15.232	19	6
O=C(CCl)N1c2ccccc2OCC1c1ccccc1 (stereo not shown) [PCM-0102266, O=C(CCl)N1c2ccccc2OCC1c1ccccc1]	-16.335	-16.335	11	0
CNC(=O)c1ccc(NC(=O)CCl)cc1 [PCM-0102267, CNC(=O)c1ccc(NC(=O)CCl)cc1]	-15.048	-15.048	0	0
O=C(CCl)N1CCN(Cc2cccc(Cl)c2)CC1 [PCM-0102269, O=C(CCl)N1CCN(Cc2cccc(Cl)c2)CC1]	-15.481	-15.481	0	19
Cc1ccc(C(C)NC(=O)CCl)cc1C (stereo not shown) [PCM-0102270, Cc1ccc(C(C)NC(=O)CCl)cc1C]	-16.558	-16.558	0	51
CC(C)N(C(=O)CCl)c1ccccc1 [PCM-0102272, CC(C)N(C(=O)CCl)c1ccccc1]	-15.780	-15.780	22	0
CC(=O)c1ccc(N2CCN(C(=O)CCl)CC2)c(F)c1 [PCM-0102273, CC(=O)c1ccc(N2CCN(C(=O)CCl)CC2)c(F)c1]	-15.374	-15.374	20	0

SMILES	ln(avg k) [1, 4]	ln(avg k) [1, 5]	NUDT7 % labeling [2] [%]	OTUB2 % labeling [3] [%]
O=C(CCl)Nc1cccnc1Cl [PCM-0102274, O=C(CCl)Nc1cccnc1Cl]	-16.315	-16.315	0	0
CC(NC(=O)CCl)c1cccc2ccccc12 (stereo not shown) [PCM-0102275, CC(NC(=O)CCl)c1cccc2ccccc12]	-16.435	-16.435	32	73
O=C(CCl)Nc1ccc(OC(F)(F)F)cc1 [PCM-0102276, O=C(CCl)Nc1ccc(OC(F)(F)F)cc1]	-15.893	-15.893	24	36
O=C(CCl)N1CCN(Cc2ccc(Cl)s2)CC1 [PCM-0102277, O=C(CCl)N1CCN(Cc2ccc(Cl)s2)CC1]	-15.648	-15.648	0	9
O=C(CCl)Nc1ccc(I)cc1 [PCM-0102278, O=C(CCl)Nc1ccc(I)cc1]	-15.784	-15.784	9	24
CNC(=O)CNC(=O)CCl [PCM-0102279, CNC(=O)CNC(=O)CCl]	-16.473	-16.473	0	10
O=C(CCl)NCc1cccs1 [PCM-0102280, O=C(CCl)NCc1cccs1]	-16.889	-16.889	0	22
O=C(CCl)N1CCN(S(=O)(=O)c2ccccc2F)CC1 [PCM-0102281, O=C(CCl)N1CCN(S(=O)(=O)c2ccccc2F)CC1]	-15.235	-15.235	14	0
CC(=O)c1ccccc1NC(=O)CCl [PCM-0102282, CC(=O)c1ccccc1NC(=O)CCl]	-16.331	-16.331	0	0
CC(=O)c1cccc(N2Cc3ccccc3C2=NC(=O)CCl)c1 [PCM-0102283, CC(=O)c1cccc(N2Cc3ccccc3C2=NC(=O)CCl)c1]	-16.303	-16.303	0	0
O=C(CCl)Nc1cc(F)ccc1F [PCM-0102284, O=C(CCl)Nc1cc(F)ccc1F]	-15.941	-15.941	0	28
CN(C)S(=O)(=O)c1ccc2c(c1)CCCN2C(=O)CCl [PCM-0102285, CN(C)S(=O)(=O)c1ccc2c(c1)CCCN2C(=O)CCl]	-15.789	-15.789	0	0
N#Cc1c(NC(=O)CCl)sc2c1CCCCC2 [PCM-0102286, N#Cc1c(NC(=O)CCl)sc2c1CCCCC2]	-16.020	-16.020	33	0
O=C(CCl)N1CCN(Cc2cccc3ccccc23)CC1 [PCM-0102287, O=C(CCl)N1CCN(Cc2cccc3ccccc23)CC1]	-15.635	-15.635	0	29
O=C(CCl)Nc1cc(Cl)ccc1Cl [PCM-0102288, O=C(CCl)Nc1cc(Cl)ccc1Cl]	-16.095	-16.095	6	0
O=C(CCl)Nc1cccc(C(F)(F)F)c1 [PCM-0102290, O=C(CCl)Nc1cccc(C(F)(F)F)c1]	-15.516	-15.516	12	26
O=C(CCl)NC1CS(=O)(=O)CC1Cl (stereo not shown) [PCM-0102291, O=C(CCl)NC1CS(=O)(=O)CC1Cl]	-16.221	-16.221	12	0
